Assay results published in patent CN102775413A, “氨基取代吴茱萸次碱类似物及其合成方法与在制备抗肥胖症药物中的应用” (Sun Yat Sen University, priority 2012, dated 2012).
Entries after “also recorded” stand apart in the source; their conditions may differ.

What was measured:
[1] = Precipitation from culture medium, microscopy, 20 μM (Example 11, Fig. 6); assay type: physicochemical; conditions: 24 h incubation with cells
[2] = system: 3T3-L1 mouse adipocytes (3T3-L1小鼠脂肪细胞); assay: Triglyceride content of differentiating 3T3-L1 adipocytes (triglyceride assay kit); assay type: cell-based
[3] = Precipitation from culture medium, microscopy, 15 μM (Example 10, Fig. 4); assay type: physicochemical; conditions: incubated with 3T3-L1 cells 6 days
[4] = system: cells (细胞); assay: Reduction of fat accumulation (general statement, test not specified); assay type: cell-based; conditions: inventors' finding
[5] = system: FAO rat hepatocytes (FAO大鼠肝细胞); assay: High-fructose-induced fat accumulation in FAO hepatocytes (triglyceride kit and BCA protein kit); assay type: cell-based; conditions: 24 h, Fig. 5

precipitation from culture medium [1]: 会从培养基中析出; also recorded: 从培养基中析出来
precipitation from culture medium [3]: 从培养基中析出来
concentration dependence of inhibition of high-fructose-induced fat accumulation in FAO rat hepatocytes ([5]; R1 0, 0.3, 10, 20 μM, R17 0, 0.1, 0.3, 10 μM): 浓度依赖性地抑制; also recorded: 浓度依赖性地减少
Compound: O=c1c2ccccc2nc2n1CCc1c-2[nH]c2ccccc12 [R1, 吴茱萸次碱]
effect on triglyceride content of 3T3-L1 cells vs DMSO control (DM) ([2]; 1 μM, Fig. 1, significance vs DM): 显著性地降低
inhibition at 3 µM ([2]; Mus musculus, 144 h, 3T3-L1 cells, 3 μM, Day 6, vs DMSO control, mean of three independent experiments, Fig. 2, read-out: reduction of triglyceride content): 34%
concentration dependence of reduction of fat accumulation in 3T3-L1 cells ([2]; R1 0, 0.3, 1, 3, 10, 15 μM, R17 and R18 0, 0.03, 0.1, 0.3, 1, 3 μM, Fig. 2): 浓度依赖性地减少
reduction of fat accumulation in cells [4]: 能减少细胞的脂肪蓄积
inhibition at 10 µM ([5]; Hepatocyte, FAO rat hepatocytes, 10 μM, 25 mM fructose, triglyceride per mg protein vs control, mean of three independent experiments, read-out: reduction of high-fructose-induced fat accumulation): 72%
